Patent US20240115557A1, “INHIBITORS OF RNA-GUIDED NUCLEASES AND USES THEREOF” (The Brigham and Women's Hospital, Inc., priority 2022, published 2024)

What was measured:
[1] = target: SpCas9:gRNA complex and DNA (Streptococcus pyogenes serotype M1, UniProt Q99ZW2); assay: Fluorescence polarization SpCas9:PAM DNA interaction assay; assay type: binding
Excerpt: The fluorescence Polarization-based Assay may monitor the change in the fluorescence polarization of the fluorophore-labelled PAM-rich target DNA (e.g., a 12PAM-DNA) upon binding to [Cas9:guideRNA] complex.
Fluorescence polarization is a useful technique to monitor the interaction between two molecules, including for example, Cas9-gRNA (ribonucleoprotein) complex and target DNA (e.g., 12PAM).
Fluorescence polarization may be used to measure the binding constants and kinetics of reactions that cause a change in the rotational time of the molecules. The technique is based on the change in the tumbling rate or mass after complexation. […] The degree of binding is calculated by using the difference in anisotropy of the partially bound, free and fully bound (large excess of protein) states measured by titrating the two binding partners. […]
Development of cumulative activity assay (CAA) for SpCas9. Applicants previously reported an assay that uses fluorescence polarization (FP) to monitor the binding between a fluorophore-labeled poly-PAM DNA oligonucleotide and SpCas9 charged with a non-targeting gRNA.^17 This assay permitted screening for small molecules that interfered with the early steps of the SpCas9 catalytic mechanism, namely, binding of SpCas9 and the relatively low-affinity NGG PAM DNA sequence. […]

SpCas9 [2] = target: T1, SpCas9 (Streptococcus pyogenes serotype M1, UniProt Q99ZW2); assay: Strand displacement assay (SDA) / cumulative activity assay (CAA), SpCas9 primary screen; assay type: biochemical; details: result in words
T1 sequence (Q99ZW2 whole entry): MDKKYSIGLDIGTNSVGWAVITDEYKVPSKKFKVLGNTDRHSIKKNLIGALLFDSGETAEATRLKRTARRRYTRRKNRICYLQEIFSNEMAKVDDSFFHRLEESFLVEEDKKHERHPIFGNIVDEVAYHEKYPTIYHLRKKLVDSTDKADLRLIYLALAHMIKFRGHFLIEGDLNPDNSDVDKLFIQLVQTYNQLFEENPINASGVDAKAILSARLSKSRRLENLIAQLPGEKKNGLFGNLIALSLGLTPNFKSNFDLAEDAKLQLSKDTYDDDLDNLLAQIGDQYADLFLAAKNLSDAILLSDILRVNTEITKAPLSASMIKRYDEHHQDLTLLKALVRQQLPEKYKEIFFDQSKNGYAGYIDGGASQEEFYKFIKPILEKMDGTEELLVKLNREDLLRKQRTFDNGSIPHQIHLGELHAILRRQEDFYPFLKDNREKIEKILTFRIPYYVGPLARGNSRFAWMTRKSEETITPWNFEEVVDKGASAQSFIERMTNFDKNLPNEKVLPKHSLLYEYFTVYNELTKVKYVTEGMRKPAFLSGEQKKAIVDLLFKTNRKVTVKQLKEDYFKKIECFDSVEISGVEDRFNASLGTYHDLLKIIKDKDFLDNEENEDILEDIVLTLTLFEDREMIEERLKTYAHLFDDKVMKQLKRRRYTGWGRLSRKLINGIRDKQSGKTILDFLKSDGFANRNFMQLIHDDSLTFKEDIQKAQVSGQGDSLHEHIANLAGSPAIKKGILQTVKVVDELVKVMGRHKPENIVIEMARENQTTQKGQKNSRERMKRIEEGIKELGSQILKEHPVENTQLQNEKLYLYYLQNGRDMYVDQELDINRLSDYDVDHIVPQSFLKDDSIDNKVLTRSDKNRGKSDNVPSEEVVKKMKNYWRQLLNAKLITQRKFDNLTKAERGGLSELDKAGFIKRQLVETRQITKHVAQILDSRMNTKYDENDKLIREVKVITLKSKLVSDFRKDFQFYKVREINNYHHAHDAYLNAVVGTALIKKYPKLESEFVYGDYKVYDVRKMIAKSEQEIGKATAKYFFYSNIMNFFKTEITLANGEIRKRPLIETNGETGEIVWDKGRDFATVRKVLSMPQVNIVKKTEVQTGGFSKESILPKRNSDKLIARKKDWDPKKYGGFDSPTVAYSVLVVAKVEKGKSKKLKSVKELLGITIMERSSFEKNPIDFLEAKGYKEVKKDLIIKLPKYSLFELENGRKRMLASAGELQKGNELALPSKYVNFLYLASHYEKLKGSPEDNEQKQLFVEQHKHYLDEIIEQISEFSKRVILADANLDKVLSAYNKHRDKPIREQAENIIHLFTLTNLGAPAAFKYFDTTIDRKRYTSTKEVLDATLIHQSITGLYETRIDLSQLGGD
In short: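 SpCas9:gRNA RNP in 20 mM Tris-HCl pH 7.5, 100 mM KCl, 5 mM MgCl2 was used at 10 nM (2× stock) with Alexa Fluor 647-labelled substrate and excess quencher strand (1 nM and 5 nM, 2× stocks). Fluorescence was read after 2.5 h at 37 °C, where cleavage lets the quencher strand anneal.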

SpCas9 [3] = target: T1, SpCas9; assay: Target engagement in live cells (photo-crosslinking, pull-down); assay type: cell-based; details: HEK293T, 20 μM probe, 20 μM competitor
Experimental: HEK293T cells were plated in a 6-well plate (400,000 cells/well). The next day, cells were transfected with […] of Cas9 expression plasmid (pX330, Addgene #42230)^51 using Lipofectamine 3000 (Invitrogen). Eight hours after transfection, cells were split into 4 wells of a 12-well plate. Total 24 h after transfection, cells were treated with DMSO, Diazirine-BRD7586 (20 μM), or Diazirine-BRD7586 with BRD7586 (both at 20 μM) for 2 h. Cells were washed with PBS once, and 500 μL of fresh PBS was added to each well. The plate was placed on ice, and cells were irradiated with UV (365 nm) for 15 min. After the removal of PBS, cells were stored at−80° C. until further analysis. Thawed cells were suspended in a lysis buffer (25 mM HEPES, 50 mM KCl, 1% Triton X-100, 1× protease inhibitor cocktail, pH 7.4, 200 μL per well), and a brief sonication was performed to ensure cell lysis. Next, click chemistry was performed with 100 μM of biotin-azide, 350 μM of Cu-TBTA, and 1.5 mM of ascorbate. The reaction was proceeded for 2 h at room temperature with mild rotation, then proteins were precipitated by the addition of cold methanol (5-fold volume of the reaction mixture) to the mixture and keeping at −80° C. for >2 h. Protein pellet was obtained by centrifugation for 10 min at 16,000 g and 4° C. […]

SpCas9:gRNA complex and DNA, sequence (Q99ZW2 whole entry, one chain of several): as the sequence (Q99ZW2 whole entry) above

SMILES: O=C(CCS(=O)(=O)c1ccc(Cl)cc1)Nc1nc(-c2ccncc2)cs1 [BRD7586]
- Inhibition of binding between SpCas9:gRNA complex and DNA [1]: does not inhibit the binding
- Inhibition of SpCas9 in CAA (SpCas9 [2]): dose-dependent inhibition
- Target engagement in live cells (SpCas9 [3]): demonstrating target engagement in live cells
